The values below come from patent publication US20260008768A1, “UREA DERIVATIVES FOR INHIBITING NLRP3 AND USES THEREOF” (VENTUS THERAPEUTICS U.S., INC., priority 2023, published 2026).

A value given as a limit tells only on which side of the number the result lay.

Assay [1] deals with T1, mouse NLRP3 (Mus musculus, UniProt Q8R4B8).
T1 construct: from tissue; host or cells: whole blood of female CD1 mice
The assay can be described thus: Mouse Whole Blood (mWB) NLRP3 Assay (LPS/ATP, IL-1b). It counts as cell-based. The protocol: Reagents: The following reagents were used: blood collection tubes (Heparin); U-bottom 96-well tissue culture (Falcon 353077); HBSS for LPS, ATP and compound dilutions (Gibco 24020-117); and LPS, E. coli serotype O26:B6 (Sigma L-2654).
Mouse IL-1b MSD assay: Blood was drawn from female CD1 mice (9 to 10 weeks) by cardiac puncture. Blood was plated (135 μL) per well in 96-well U-bottom plates. 7.5 μL of 20×LPS (20 μg/mL, final concentration of 1 μg/mL) was added and mixed by gentle pipetting, and the mixture was incubated in a TC incubator for five hours. 7.5 μL of 20× compound or vehicle per well was added and mixed by gentle pipetting. Compounds were diluted 1/50 in HBSS to prepare a 20× dilution curve in 2% DMSO. The mixture was incubated for 30 minutes in a TC incubator with shaking (450 rpm). 5 μl of 31×ATP (155 mM, final concentration of 5 mM) was added and mixed by gentle pipetting. The mixture was incubated in a TC incubator for 30 minutes with shaking (450 rpm). The plate was centrifuged for 10 minutes at 800×g and ˜70 μL of plasma was removed. Plasma was frozen if required. Mouse IL-1b was analyzed with IL-1b MSD assay (K152TUK).
Compounds were added 30 minutes before priming the cells with LPS when TNFα was required to be quantified in the cytokine panel to confirm selectivity.
mWB NLRP3 IC50 assay results, as a measurement of whole blood potency, are provided in Table B. “A” activity=<1 uM; “B” activity=1-2 uM; “C” activity=>2-3 uM; “D” activity=>3 uM.

The target in assay [2] is T2, human NLRP3 (Homo sapiens, UniProt Q96P20). Kind of assay: Human Whole Blood (hWB) NLRP3 Assay (LPS/ATP, IL-1β). It counts as cell-based. Details: host or cells: human whole blood from healthy volunteers (A3). The method, boiled down:
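Heparinized healthy-donor human whole blood primed with LPS 1 μg/ml for 4.5 h, with compound added 30 min before ATP activation, or compound added 30 min before 5 h LPS priming. ATP stimulation for 30 min at 37 °C, then plasma IL-1β measured by MSD immunoassay to give IC50.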

Assay [3] concerns the target T2, human NLRP3. The assay can be described thus: Scintillation Proximity (SPA) NLRP3 Assay, displacement of 3H-MCC950. It counts as binding. To be noted: for IC50: displacement of 3H-MCC950 from human NLRP3. The method, boiled down:
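Displacement of radioligand 3H-MCC950 (125 nM final) from 350 nM human NLRP3, read by scintillation proximity after 6 h equilibration with PVT beads. Buffer: 20 mM HEPES pH 7.5, 150 mM NaCl, 5 mM MgCl2, 100 μM ADP; compound preincubated 15 min, ligand 60 min, RT. IC50 from specific binding.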
In general terms: In a scintillation proximity assay essentially only radioactivity close to the scintillant gives light.

T1 sequence (Q8R4B8 whole entry): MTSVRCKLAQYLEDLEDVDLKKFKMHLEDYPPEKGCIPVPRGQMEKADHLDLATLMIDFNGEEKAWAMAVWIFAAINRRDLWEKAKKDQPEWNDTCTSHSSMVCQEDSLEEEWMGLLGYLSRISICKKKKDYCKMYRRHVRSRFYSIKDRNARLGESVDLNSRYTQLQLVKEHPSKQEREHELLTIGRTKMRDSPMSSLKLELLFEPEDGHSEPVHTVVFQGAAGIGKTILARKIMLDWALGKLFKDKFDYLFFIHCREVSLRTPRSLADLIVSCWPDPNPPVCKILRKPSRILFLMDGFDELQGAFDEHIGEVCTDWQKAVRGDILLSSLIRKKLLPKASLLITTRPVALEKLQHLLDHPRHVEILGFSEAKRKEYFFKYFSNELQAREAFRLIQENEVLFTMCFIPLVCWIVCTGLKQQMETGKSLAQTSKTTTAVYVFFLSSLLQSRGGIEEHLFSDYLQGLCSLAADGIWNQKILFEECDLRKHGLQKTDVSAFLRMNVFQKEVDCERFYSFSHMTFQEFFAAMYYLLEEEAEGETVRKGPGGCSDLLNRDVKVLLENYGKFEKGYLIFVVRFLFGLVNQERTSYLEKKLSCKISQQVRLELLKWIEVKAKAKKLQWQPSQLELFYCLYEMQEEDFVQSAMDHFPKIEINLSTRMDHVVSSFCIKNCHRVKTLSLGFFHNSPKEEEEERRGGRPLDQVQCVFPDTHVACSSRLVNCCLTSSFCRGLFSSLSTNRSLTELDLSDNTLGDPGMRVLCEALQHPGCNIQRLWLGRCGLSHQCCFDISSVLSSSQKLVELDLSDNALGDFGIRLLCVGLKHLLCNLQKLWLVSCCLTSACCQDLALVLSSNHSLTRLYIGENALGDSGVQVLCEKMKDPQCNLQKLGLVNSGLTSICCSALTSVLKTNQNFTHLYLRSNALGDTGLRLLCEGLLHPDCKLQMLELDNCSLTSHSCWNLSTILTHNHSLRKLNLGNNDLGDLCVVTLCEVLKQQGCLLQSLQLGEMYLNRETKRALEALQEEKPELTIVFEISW
T2 sequence (Q96P20 whole entry): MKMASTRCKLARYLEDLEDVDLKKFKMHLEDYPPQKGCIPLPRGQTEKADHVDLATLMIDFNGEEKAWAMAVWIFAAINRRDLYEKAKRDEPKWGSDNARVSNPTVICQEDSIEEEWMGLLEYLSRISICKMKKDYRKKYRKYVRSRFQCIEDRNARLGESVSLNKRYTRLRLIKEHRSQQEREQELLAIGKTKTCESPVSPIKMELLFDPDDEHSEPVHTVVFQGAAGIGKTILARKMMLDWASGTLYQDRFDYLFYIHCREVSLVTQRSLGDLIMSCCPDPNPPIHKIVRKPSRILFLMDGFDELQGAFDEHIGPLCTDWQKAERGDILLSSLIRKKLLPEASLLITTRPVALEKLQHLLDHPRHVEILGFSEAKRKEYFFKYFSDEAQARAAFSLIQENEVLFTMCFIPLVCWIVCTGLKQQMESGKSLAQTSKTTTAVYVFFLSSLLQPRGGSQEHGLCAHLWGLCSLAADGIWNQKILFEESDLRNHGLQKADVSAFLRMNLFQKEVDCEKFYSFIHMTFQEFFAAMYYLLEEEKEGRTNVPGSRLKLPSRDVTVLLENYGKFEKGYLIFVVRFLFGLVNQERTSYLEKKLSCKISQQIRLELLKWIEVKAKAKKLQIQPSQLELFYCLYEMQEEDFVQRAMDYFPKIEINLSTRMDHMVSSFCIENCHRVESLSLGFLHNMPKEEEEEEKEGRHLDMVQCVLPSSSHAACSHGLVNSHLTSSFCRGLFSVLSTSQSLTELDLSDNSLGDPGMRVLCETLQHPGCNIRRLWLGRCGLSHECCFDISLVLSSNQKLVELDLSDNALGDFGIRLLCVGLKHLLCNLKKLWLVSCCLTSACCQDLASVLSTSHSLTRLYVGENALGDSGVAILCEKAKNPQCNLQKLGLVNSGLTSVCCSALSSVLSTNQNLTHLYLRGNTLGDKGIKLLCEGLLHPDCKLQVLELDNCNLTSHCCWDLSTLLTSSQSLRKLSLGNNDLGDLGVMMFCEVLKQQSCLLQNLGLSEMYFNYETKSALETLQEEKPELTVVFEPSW

With `C[C@@H]1CCN(c2nnn[nH]2)C[C@H](NC(=O)N(C)c2ccc(Cl)cc2)C1` (single isomer, unassigned) [4A*], the 50% inhibitory concentration (IC50) (usually the midpoint of a concentration-inhibition curve) in assay [1] (Table B, activity class) is under 1000 nM; in assay [1] (Table C), 40 nM; in assay [2] (Table B, activity class) it was under 1000 nM; in assay [2] (Table C), 150 nM; in assay [3] (Table B, activity class), under 1000 nM; in assay [3] (Table C) it was 96 nM. The “fold improvement in binding activity (SPA IC50)” value in assay [3] (relative to Comparative Example B1) is on record as over 1950 fold.

Regarding `C[C@@H]1CCN(c2nnn[nH]2)C[C@H](NC(=O)N(C)c2ccc(OC(F)F)cc2)C1` (single isomer, unassigned) [11A*], the 50% inhibitory concentration (IC50) is under 1000 nM in assay [1] (Table B, activity class); 26 nM in assay [1] (Table C); under 1000 nM in assay [2] (Table B, activity class); 58 nM in assay [2] (Table C); under 1000 nM in assay [3] (Table B, activity class); 140 nM in assay [3] (Table C). For the same compound, in assay [3] (relative to Compound 39A), the “fold increase in binding activity (SPA IC50)” value turned out to be 5.9 fold.

Regarding `C[C@@H]1CCN(c2nnn[nH]2)C[C@H](NC(=O)N(C)c2ccc(OC(F)(F)F)cc2)C1` (single isomer, unassigned) [10A*], the half-maximal inhibitory concentration (IC50) in assay [1] (Table B, activity class) is under 1000 nM; in assay [1] (Table C) it was 95 nM; in assay [2] (Table B, activity class), under 1000 nM; in assay [2] (Table C) it was 300 nM; in assay [3] (Table B, activity class), under 1000 nM; in assay [3] (Table C), 200 nM.
